According to PMC5876388 (Scientific Reports, 2018):

Key:
HES5 = experiment: Western blot in assay cells; assay type: cell-based; details: LS174T Notch cells, 12 h
Protocol: (§1) After another 12 h incubation with 50 ng/mL Dox, and cells were washed with PBS. Medium was changed to fresh medium with 2 and incubated for 12 h. […] (C–F) Relative protein levels analyzed by densitometry. […] P values were analyzed by Student’s t test.
(§2) Before another 12 h incubation, 50 ng/mL of doxycycline was added into each dish. Then, medium was changed to fresh medium with each compound. After 12 h incubation, cells were washed with PBS (500 μL) twice and then cells were collected by scraping. Using lysis buffer (20 mM Tris-HCl pH 7.4, 150 mM NaCl, 0.5% sodium deoxycholate, 10 mM EDTA, 1 mM sodium orthovanadate, and 0.1 mM NaF) containing a 1% […] inhibiotor cocktail (Nacalai Tesque, Tokyo, Japan), protein lysate was prepared. Protein lysates were separated by a 7.5%, 10%, 12.5% and 15% SDS-PAGE electrophoresis. Proteins were then transferred to a PVDF membrane (Bio-Rad Laboratories, Inc. Hercules, USA) electrophoretically. The membrane was incubated for 1 h with TBST (10 mM Tris-HCl pH 7.4, 100 mM NaCl and 0.1% Tween 20) containing 5% skimmed milk. […]

HES1 [1] = experiment: Western blot in assay cells; assay type: cell-based; details: LS174T Notch cells, 12 h
Protocol: as §1, §2

[2] = Cytotoxicity test, AlamarBlue; details: human, HPB-ALL cells
Protocol: (§3) HPB-ALL cells (1 × 10^4 cells per well) were incubated in 96-well black plates at 37 °C for 72 h. Media also contained different concentrations of compound. After incubation, AlamarBlue was added 10 μL per well. After incubation for 4 h, using a fluorescence plate reader, fluorescence was measured and cell viability was determined. Data are presented as the mean with SD from three independent experiments. […] The effect on protein expression was analyzed by Western blotting. β-Actin was used as internal control. (D,E) Relative protein levels of NICD and HES1 analyzed by densitometry. Data are presented as the mean with SD from three independent experiments. *P < 0.05 is considered statistically significant. P values were analyzed by Student’s t test.
HPB-ALL cells (1 × 10^4 cells per well) were incubated in 96-well black plates in 100 μL of RPMI-1640 medium with 10% FBS, Streptomycin (100 μg/mL) and Penicillin (100 unit/mL). Media also contained different concentrations of compound. Cells were incubated at 37 °C for 72 h. After incubation, AlamarBlue (00–025, DAL1025; Thermo Fisher Scientific Inc., Waltham, USA) was added 10 μL per well. After incubation for 4 h, using a fluorescence plate reader (Thermo Fisher Scientific Inc., Waltham, USA), fluorescence was measured and cell viability was determined.

NICD [3] = experiment: Western blot in HPB-ALL cells; assay type: cell-based, human; details: 10 μM, 72 h
Protocol: as §3
(§4) HPB-ALL cells were incubated in a 6 cm dish in 5 mL of RPMI-1640 medium with 10% FBS, Streptomycin (100 μg/mL) and Penicillin (100 unit/mL) at 5 × 10^5 cells per dish (1 × 10^6 cells per dish, when treatment with MG132). Media also contained different concentrations of compound. Cells were incubated at 37 °C for 72 h (12 h, when treatment with MG132). After incubation, cells were centrifuged and collected, and then washed with 500 μL of PBS twice. To prepare cell lysate and confirm protein expression levels, the same method as described above was used.

HES1 [4] = experiment: Western blot in HPB-ALL cells; assay type: cell-based, human; details: 10 μM, 72 h
Protocol: as §3, §4

Notch1(1704–2531) = experiment: Western blot in assay cells; assay type: cell-based, mouse; details: LS174T Notch cells, 12 h
Protocol: as §1, §2

NICD [5] = experiment: Western blot in assay cells; assay type: cell-based, mouse; details: LS174T Notch cells, 12 h
Protocol: as §1, §2

## COc1c(O)cc2oc3cc(O)c(CC=C(C)C)c(O)c3c(=O)c2c1C/C=C(\C)CCC=C(C)C [Compound 2, cowanin]
HES5
  expression of HES5: reduced
HES1 [1]
  expression of HES1: reduced
[2]
  IC50 at 72 h: 7.5 µM
  viability at 12 h, 15 µM: 98%
NICD [3]
  expression of NICD: reduced
HES1 [4]
  expression of HES1: reduced
Notch1(1704–2531)
  expression of Notch1(1704–2531): increased
NICD [5]
  NICD level: reduced dose dependently
